Measurements reported in ChEMBL document CHEMBL4483862, “Open-source discovery of chemical leads for next-generation chemoprotective antimalarials” (2018).

Test system: Plasmodium berghei
Assay: Luciferase/luciferin-expressing antifolate-resistant parasites were used to infect a culture of HepG2 cells that were pre-incubated with compounds. Infected hepatocytes emit light due to the luciferase reaction. Assay results are presented as the percent inhibition of light emission compared to control. […]
Assay type: functional
Details: sporozoite; for IC90: read-out: LUCIFERASE INFECTION ASSAY - IC90

CC1CCCCC1Nc1ncnc2sccc12 (stereo unspecified)
IC50 (HEPG2TOX_HILL_SLOPE 0.142, HEPG2TOX_R_SQUARED 0.36, PBLUC_HILL_SLOPE 4.81, PBLUC_R_SQUARED 0.31, read-out: LUCIFERASE INFECTION ASSAY - IC50): 9.81 µM | IC90: > 10 µM

CCOc1ccc(Nc2nc3cc(S(=O)(=O)N(CC)CC)ccc3o2)cc1
IC50 (HEPG2TOX_HILL_SLOPE 0.167, HEPG2TOX_R_SQUARED 0.162, read-out: LUCIFERASE INFECTION ASSAY - IC50): > 10 µM | IC90: > 10 µM

CC(C)(C)c1ccc(CC(=O)N2CCC2(C)C(=O)Nc2cnc3ccccc3c2)cc1 (stereo unspecified)
IC50 (HEPG2TOX_HILL_SLOPE 0.158, HEPG2TOX_R_SQUARED 0.645, PBLUC_HILL_SLOPE 10.5, PBLUC_R_SQUARED 0.686, read-out: LUCIFERASE INFECTION ASSAY - IC50): 3.02 µM | IC90: 3.72 µM

Cc1cnc(C(=O)OCC(=O)N(CC(C)C)C2CCS(=O)(=O)C2)cn1 (stereo unspecified)
IC50 (HEPG2TOX_HILL_SLOPE 0.131, HEPG2TOX_R_SQUARED 0.272, PBLUC_HILL_SLOPE 1.29, PBLUC_R_SQUARED 0.0136, read-out: LUCIFERASE INFECTION ASSAY - IC50): > 10 µM | IC90: > 10 µM

CCN(c1ccccc1)S(=O)(=O)c1ccc(C(=O)NC2CCCCC2)cc1
IC50 (HEPG2TOX_HILL_SLOPE 0.154, HEPG2TOX_R_SQUARED 0.656, read-out: LUCIFERASE INFECTION ASSAY - IC50): > 10 µM | IC90: > 10 µM

COc1cc(NC(=O)COC(=O)c2ccccc2Nc2ccc(SC(F)F)cc2)c(C)cc1[N+](=O)[O-]
IC50 (HEPG2TOX_HILL_SLOPE 0.171, HEPG2TOX_R_SQUARED 0.654, read-out: LUCIFERASE INFECTION ASSAY - IC50): > 10 µM | IC90: > 10 µM

O=C(CCC(=O)N1CCC(C(O)(c2ccccc2)c2ccccc2)CC1)c1cccs1
IC50 (HEPG2TOX_HILL_SLOPE 0.15, HEPG2TOX_R_SQUARED 0.513, PBLUC_HILL_SLOPE 4.19, PBLUC_R_SQUARED 0.279, read-out: LUCIFERASE INFECTION ASSAY - IC50): 2.16 µM | IC90: 3.65 µM

Cc1ccc(-c2csc3[nH]c(=S)n(Cc4ccccc4)c(=O)c23)cc1
IC50 (HEPG2TOX_HILL_SLOPE 0.131, HEPG2TOX_R_SQUARED 0.154, PBLUC_HILL_SLOPE 0.317, PBLUC_R_SQUARED 0.176, read-out: LUCIFERASE INFECTION ASSAY - IC50): 7.53 µM | IC90: > 10 µM

O=C(CSc1nnc(-c2ccncc2)[nH]1)N1N=C(c2cccs2)CC1c1cccs1 (stereo unspecified)
IC50 (HEPG2TOX_HILL_SLOPE 0.148, HEPG2TOX_R_SQUARED 0.0376, read-out: LUCIFERASE INFECTION ASSAY - IC50): > 10 µM | IC90: > 10 µM

Cc1nnc(SCCOc2ccc(C(C)(C)C)cc2)n1C1CCCCC1
IC50 (HEPG2TOX_HILL_SLOPE 0.16, HEPG2TOX_R_SQUARED 0.182, read-out: LUCIFERASE INFECTION ASSAY - IC50): > 10 µM | IC90: > 10 µM

CC(Sc1nc(=O)c2c3c(sc2[nH]1)CCCC3)C(=O)Nc1ccc2ccccc2c1 (stereo unspecified)
IC50 (HEPG2TOX_HILL_SLOPE 0.165, HEPG2TOX_R_SQUARED 0.248, read-out: LUCIFERASE INFECTION ASSAY - IC50): > 10 µM | IC90: > 10 µM

CCn1c(O)c(C2NCCc3c2[nH]c2ccc(OC)cc32)c(=O)[nH]c1=O (stereo unspecified)
IC50 (HEPG2TOX_HILL_SLOPE 0.178, HEPG2TOX_R_SQUARED 0.706, PBLUC_HILL_SLOPE 1.13, PBLUC_R_SQUARED 0.918, read-out: LUCIFERASE INFECTION ASSAY - IC50): 0.675 µM | IC90: 4.71 µM

Fc1ccc(-c2cnc3cnc(-c4cccs4)cn23)cc1Cl
IC50 (HEPG2TOX_HILL_SLOPE 0.129, HEPG2TOX_R_SQUARED 0.552, PBLUC_HILL_SLOPE 2.11, PBLUC_R_SQUARED 0.543, read-out: LUCIFERASE INFECTION ASSAY - IC50): 4.6 µM | IC90: > 10 µM

Cc1nc(CCNC(=O)Cc2cn(-c3ccccc3)nc2-c2ccc(Cl)cc2)cs1
IC50 (HEPG2TOX_HILL_SLOPE 0.133, HEPG2TOX_R_SQUARED 0.316, PBLUC_HILL_SLOPE 7.24, PBLUC_R_SQUARED 0.0479, read-out: LUCIFERASE INFECTION ASSAY - IC50): 8.62 µM | IC90: > 10 µM

CC(C)c1cccc(Nc2nnc(C(O)c3cccc(N(C)C)c3)s2)c1 (stereo unspecified)
IC50 (HEPG2TOX_HILL_SLOPE 0.177, HEPG2TOX_R_SQUARED 0.124, PBLUC_HILL_SLOPE 3.19, PBLUC_R_SQUARED 0.0119, read-out: LUCIFERASE INFECTION ASSAY - IC50): > 10 µM | IC90: > 10 µM

CC(C)[C@H](NC(=O)c1ccccc1Cl)C(=O)OC(C(=O)Nc1cccc(C(F)(F)F)c1)c1ccccc1 (stereo partly specified)
IC50 (HEPG2TOX_HILL_SLOPE 0.157, HEPG2TOX_R_SQUARED 0.175, read-out: LUCIFERASE INFECTION ASSAY - IC50): > 10 µM | IC90: > 10 µM

CC(C)(C)c1nc(-c2ccc(N)cc2)no1
IC50 (HEPG2TOX_HILL_SLOPE 0.127, HEPG2TOX_R_SQUARED 0.315, PBLUC_HILL_SLOPE 1.58, PBLUC_R_SQUARED 0.494, read-out: LUCIFERASE INFECTION ASSAY - IC50): 2.28 µM | IC90: 9.21 µM

CC(C)(CNC(=O)c1ccc(F)cc1)SCc1ccc(F)cc1
IC50 (HEPG2TOX_HILL_SLOPE 0.147, HEPG2TOX_R_SQUARED 0.538, PBLUC_HILL_SLOPE 1.03, PBLUC_R_SQUARED 0.662, read-out: LUCIFERASE INFECTION ASSAY - IC50): 3.54 µM | IC90: > 9.84 µM

Cc1ccc(S(=O)(=O)Oc2c(C(C)C)cc(Nc3cc(C)ccc3C)cc2C(C)C)cc1
IC50 (HEPG2TOX_HILL_SLOPE 0.156, HEPG2TOX_R_SQUARED 0.126, PBLUC_HILL_SLOPE 13.1, PBLUC_R_SQUARED 0.436, read-out: LUCIFERASE INFECTION ASSAY - IC50): 9 µM | IC90: > 10 µM

Cc1cc(C(=O)COC(=O)c2ccccc2C(F)(F)F)c(C)n1Cc1ccccc1Cl
IC50 (HEPG2TOX_HILL_SLOPE 0.164, HEPG2TOX_R_SQUARED 0.816, PBLUC_HILL_SLOPE 1.63, 0.884, PBLUC_R_SQUARED 0.848, 0.800, read-out: LUCIFERASE INFECTION ASSAY - IC50): 0.696 µM | IC90: 3.52 µM

CC1CCN(Cc2csc(NC(=O)c3ccc4ncsc4c3)n2)CC1
IC50 (HEPG2TOX_HILL_SLOPE 0.129, HEPG2TOX_R_SQUARED 0.115, read-out: LUCIFERASE INFECTION ASSAY - IC50): > 10 µM | IC90: > 10 µM

NC(=O)c1cccc(-c2cn3c(-c4ccccc4)cnc3cn2)c1
IC50 (HEPG2TOX_HILL_SLOPE 0.15, HEPG2TOX_R_SQUARED 0.654, PBLUC_HILL_SLOPE 0.762, PBLUC_R_SQUARED 0.254, read-out: LUCIFERASE INFECTION ASSAY - IC50): > 10.5 µM | IC90: > 10.5 µM

N#Cc1c(SCC(=O)c2ccccc2)nc2c(c1-c1ccccc1)CCCC2
IC50 (HEPG2TOX_HILL_SLOPE 0.131, HEPG2TOX_R_SQUARED 0.0459, PBLUC_HILL_SLOPE 1.72, PBLUC_R_SQUARED 0.594, read-out: LUCIFERASE INFECTION ASSAY - IC50): 1.78 µM | IC90: 6.39 µM

O=C(NC1CCCCC1C(F)(F)F)c1csc(-c2ccccc2)n1 (stereo unspecified)
IC50 (HEPG2TOX_HILL_SLOPE 0.159, HEPG2TOX_R_SQUARED 0.617, PBLUC_HILL_SLOPE 14, PBLUC_R_SQUARED 0.734, read-out: LUCIFERASE INFECTION ASSAY - IC50): 3.35 µM | IC90: 3.92 µM

CCOc1ccc(C(=O)Nc2nc3ccccn3c2C(=O)NC(C)C)cc1
IC50 (HEPG2TOX_HILL_SLOPE 0.179, HEPG2TOX_R_SQUARED 0.152, PBLUC_HILL_SLOPE 1.27, PBLUC_R_SQUARED 0.525, read-out: LUCIFERASE INFECTION ASSAY - IC50): 1.5 µM | IC90: 8.41 µM

CCOC(=O)c1c(NC(=O)C2Cc3ccccc3CN2S(=O)(=O)c2cccs2)sc2c1CCCC2 (stereo unspecified)
IC50 (HEPG2TOX_HILL_SLOPE 0.167, HEPG2TOX_R_SQUARED 0.0943, PBLUC_HILL_SLOPE 2.23, PBLUC_R_SQUARED 0.122, read-out: LUCIFERASE INFECTION ASSAY - IC50): 6.53 µM | IC90: > 10 µM

CC(=O)c1cccc(-c2cnc3ccc(-c4cccc(Oc5ccccc5)c4)nn23)c1
IC50 (HEPG2TOX_HILL_SLOPE 0.164, HEPG2TOX_R_SQUARED 0.772, PBLUC_HILL_SLOPE 1.12, PBLUC_R_SQUARED 0.566, read-out: LUCIFERASE INFECTION ASSAY - IC50): 1.9 µM | IC90: > 10 µM

Cc1ccc(C)c(NC(=O)C(OC(=O)c2c3c(nc4ccccc24)CCN(C)C3)c2ccccc2)c1 (stereo unspecified)
IC50 (HEPG2TOX_HILL_SLOPE 0.135, HEPG2TOX_R_SQUARED 0.194, read-out: LUCIFERASE INFECTION ASSAY - IC50): > 10 µM | IC90: > 10 µM

O=C(CCC1CCCC1)N1CCC(c2nnc3n2CCC3)CC1
IC50 (HEPG2TOX_HILL_SLOPE 0.129, HEPG2TOX_R_SQUARED 0.379, read-out: LUCIFERASE INFECTION ASSAY - IC50): > 10 µM | IC90: > 10 µM

CCCCNS(=O)(=O)c1ccc2nc(SCC3CCCO3)[nH]c2c1 (stereo unspecified)
IC50 (HEPG2TOX_HILL_SLOPE 0.14, HEPG2TOX_R_SQUARED 0.119, PBLUC_HILL_SLOPE 2.38, PBLUC_R_SQUARED 0.33, read-out: LUCIFERASE INFECTION ASSAY - IC50): 9.76 µM | IC90: > 10 µM

CN(C)S(=O)(=O)c1cccc(NC(=O)c2ccc(-n3cnc4ccccc43)cc2)c1
IC50 (HEPG2TOX_HILL_SLOPE 0.179, HEPG2TOX_R_SQUARED 0.448, PBLUC_HILL_SLOPE 2.55, PBLUC_R_SQUARED 0.642, read-out: LUCIFERASE INFECTION ASSAY - IC50): 2.67 µM | IC90: 6.32 µM

Fc1ccc(-c2ccc3ncc(-c4cccnc4)n3n2)cc1
IC50 (HEPG2TOX_HILL_SLOPE 0.173, HEPG2TOX_R_SQUARED 0.325, read-out: LUCIFERASE INFECTION ASSAY - IC50): > 3.33 µM | IC90: > 3.33 µM

Cc1[nH]c2ccccc2c1C(=O)C(C)OC(=O)C1(c2cccc(F)c2)CCCC1 (stereo unspecified)
IC50 (HEPG2TOX_HILL_SLOPE 0.175, HEPG2TOX_R_SQUARED 0.148, read-out: LUCIFERASE INFECTION ASSAY - IC50): > 10 µM | IC90: > 10 µM
